Holding throughout (assay type): binding
Test [1] has as its target T1, OR35a (Drosophila melanogaster, UniProt Q9V3Q2).
T1 sequence (Q9V3Q2 1-409): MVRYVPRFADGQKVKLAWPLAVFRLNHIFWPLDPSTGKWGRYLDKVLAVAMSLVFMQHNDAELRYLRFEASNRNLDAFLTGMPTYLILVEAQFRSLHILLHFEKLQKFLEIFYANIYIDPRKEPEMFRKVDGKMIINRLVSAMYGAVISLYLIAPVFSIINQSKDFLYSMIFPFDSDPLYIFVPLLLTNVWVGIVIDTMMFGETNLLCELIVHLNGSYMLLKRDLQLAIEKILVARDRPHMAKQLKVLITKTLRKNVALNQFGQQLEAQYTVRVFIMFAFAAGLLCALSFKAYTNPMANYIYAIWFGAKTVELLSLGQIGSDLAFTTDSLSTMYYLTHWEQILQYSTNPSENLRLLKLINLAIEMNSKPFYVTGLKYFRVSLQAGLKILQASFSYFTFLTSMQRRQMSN
Briefly: CNT-FET sensor covalently functionalized with Or35a nanodiscs (Example 3). As for the experimental part: The dispersion was sonicated until a clear solution was obtained. The temperature was kept at 25° C. throughout the sonication process. The thiolpyridine solution was prepared by dissolving 10 mg of 2-Mercaptopyridine (99%, Sigma Aldrich) in 1 ml of methanol. The solution was spun coated on a polydimethylsiloxane (PDMS) surface at 2000 rpm for one minute. Before the spin coating process, the PDMS surface was cleaned by a 50 W Oxygen plasma for 1 minute to improve the wettability. The cleaned substrates were placed upside down on the PDMS surface for three minutes and washed in ethanol to remove the excess thiolpyridine molecules. Then the substrates were transferred into the CNT suspension and immersed into the suspension for 10 minutes. The samples were removed from the suspension and dipped into Ethanol for another 10 minutes to remove the thiolpyridine molecules in the SWNT network. The alignment markers were deposited by defining the markers by photolithography and thermal evaporation of 5 nm Chromium and 50 nm of Gold. The metal Lift off was done by acetone immersion for 15 minutes followed by an Isopropyl alcohol (IPA) wash and N2 blow dry. The result is a uniform thin film CNT network covering the entire substrate surface. The purification procedure is a variation on the one detailed in […] et al. 2013^14. […] Purity was assessed on Coomassie stained SDS-PAGE gels and Western blotting. […]

The target of test [2] is T2, Or10a (Drosophila melanogaster, UniProt Q9VYZ1).
T2 sequence (Q9VYZ1 1-406): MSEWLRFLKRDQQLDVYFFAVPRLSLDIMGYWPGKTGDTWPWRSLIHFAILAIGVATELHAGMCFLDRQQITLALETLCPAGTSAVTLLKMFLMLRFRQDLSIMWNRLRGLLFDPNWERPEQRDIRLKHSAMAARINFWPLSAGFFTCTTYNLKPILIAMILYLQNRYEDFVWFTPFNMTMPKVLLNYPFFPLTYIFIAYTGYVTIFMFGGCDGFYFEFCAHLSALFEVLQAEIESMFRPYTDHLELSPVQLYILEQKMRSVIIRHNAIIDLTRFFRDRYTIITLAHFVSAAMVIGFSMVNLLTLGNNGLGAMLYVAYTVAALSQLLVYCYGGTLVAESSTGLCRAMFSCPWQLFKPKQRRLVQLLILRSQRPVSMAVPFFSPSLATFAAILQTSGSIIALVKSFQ
Briefly: EIS sensor, Or10a nanodiscs on gold electrode (Example 4).

Test [3] addresses T1, OR35a. The test can be described thus: EIS sensor, Or35a nanodiscs on gold electrode (Example 4).
Test [4] deals with T1, OR35a. Briefly: CNT-FET sensor, OR35a nanodiscs via his-tag/Ni-NTA (Example 2). To be noted: for real time source-drain current response: OR35a nanodiscs 1:10, E-2-hexenal at 64 pM, methyl hexanoate 70 nM to 500 μM.
Test [5] concerns the target T2, Or10a. Briefly: EIS sensor, Or10a liposomes on gold electrode, optimized conditions (Example 5).
Where [6] appears, read: real time current measurement mode.

The record followed here is patent US12044651B2, “Sensor device and methods” (SCENTIAN BIO LIMITED, priority 2016, dated 2024).

For the compound `CCC/C=C/C=O` [E2-hexenal], on OR35a [1] (nanodiscs 1:100 dilution), the limit of detection result was “below 1 fM”. Moreover, on OR35a [1] (setting [6]), the “concentration at which clear electronic response starts” value is recorded as 1 fM. Also, the “EIS response to control ligand” value on Or10a [2] is “do not respond”. Also, the LOD at OR35a [3] (EIS) is listed as < 1 fM. Moreover, the “concentration to which the sensor demonstrates a response in real time” value on OR35a [4] (OR35a nanodisc functionalized CNT FET) was determined as 64 pM. Also, the “real time source-drain current response” value on OR35a [4] was “immediate large decrease”. The compound further showed a ΔI/I0 change on OR35a [4] (at 64 pM, OR35a nanodiscs 1:10 dilution) of 10%. On OR35a [4] (present study, Table 4), the EC50 (as a rule, the concentration that produces a half-maximal response) was ~0.3 nM and the Sensitivity limit came to 0.001 pM. In addition, at OR35a [4] (setting [6]), the “concentration at which clear electronic response starts” value stood at 1 fM.

Consider `CCCCCC(=O)OC` [methyl hexanoate], for which the “EIS response to control ligand” value on Or10a [5] was “do not respond”. The “real time source-drain current response” value at OR35a [4] is given as “no clear response”.

Turning to `COC(=O)c1ccccc1O` [methyl salicylate], the LOD came out at 10 fM at Or10a [2] (EIS) and 1 pM on Or10a [5] (EIS). In addition, at OR35a [3], the “EIS response to control ligand” value was “does not respond”.
